From patent US20070027150A1 (priority 2005, published 2007) come the findings set out here.

Molecules are shown by their SMILES.

The target in this experiment is His-tagged N-terminal ATP binding domain (amino acid residues 9-236) of HSP90α (Homo sapiens, UniProt P07900). As to the kind of experiment: HSP90 inhibitor binding potency: TRF competition binding assay. Conditions: Table II; read-out: Hsp90 IC50 Range. A digest of the protocol: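 Competition against biotinylated radicicol for binding to the His-tagged 9-236 ATP domain of HSP90α: 2 h, room temperature, HEPES/MgCl2/KCl/BSA buffer. Streptavidin capture, then europium-labeled anti-His antibody and enhancement solution; europium counts give IC50.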
In the case of `CCc1cccc(-n2ccnc2C2CC(=O)c3c(C)nc(N)nc3C2)n1` (stereo not drawn) [Compound 201, 2-amino-7-[1-(6-ethyl-pyridin-2-yl)-1H-imidazol-2-yl]-4-methyl-7,8-dihydro-6H-quinazolin-5-one], the IC50 was 1000 to 10000 nM. Then `COc1ncccc1-n1ccnc1C1CC(=O)c2c(C)nc(N)nc2C1` (stereo not drawn) [Compound 202, 2-amino-7-[1-(2-methoxy-pyridin-3-yl)-1H-imidazol-2-yl]-4-methyl-7,8-dihydro-6H-quinazolin-5-one], with below 1000 nM; and `COc1cccc(-n2ccnc2[C@H]2CC(=O)c3c(C)nc(N)nc3C2)n1` [Compound 203, (R)-2-amino-7-[1-(6-methoxy-pyridin-2-yl)-1H-imidazol-2-yl]-4-methyl-7,8-dihydro-6H-quinazolin-5-one], with 1000 to 10000 nM; and `COc1cccc(-n2ccnc2[C@@H]2CC(=O)c3c(C)nc(N)nc3C2)n1` [Compound 204, (S)-2-amino-7-[1-(6-methoxy-pyridin-2-yl)-1H-imidazol-2-yl]-4-methyl-7,8-dihydro-6H-quinazolin-5-one], with below 1000 nM. `COc1cccc(-n2cc(C(F)(F)F)nc2C2CC(=O)c3c(C)nc(N)nc3C2)n1` (stereo not drawn) [Compound 205, 2-amino-7-[1-(6-methoxy-pyridin-2-yl)-4-trifluoromethyl-1H-imidazol-2-yl]-4-methyl-7,8-dihydro-6H-quinazolin-5-one]: the concentration for half-maximal inhibition (IC50) is below 1000 nM. The value for `COc1nc(-n2ccnc2C2CC(=O)c3c(C)nc(N)nc3C2)ncc1C` (stereo not drawn) [Compound 206, 2-amino-7-[1-(4-methoxy-5-methyl-pyrimidin-2-yl)-1H-imidazol-2-yl]-4-methyl-7,8-dihydro-6H-quinazolin-5-one] was below 1000 nM.

Turning to `COc1nc(-n2ccnc2[C@H]2CC(=O)c3c(C)nc(N)nc3C2)ncc1C` [Compound 207, (R)-2-amino-7-[1-(4-methoxy-5-methyl-pyrimidin-2-yl)-1H-imidazol-2-yl]-4-methyl-7,8-dihydro-6H-quinazolin-5-one], the 50% inhibitory concentration (IC50) is above 10000 nM. Take `COc1nc(-n2ccnc2[C@@H]2CC(=O)c3c(C)nc(N)nc3C2)ncc1C` [Compound 208, (S)-2-amino-7-[1-(4-methoxy-5-methyl-pyrimidin-2-yl)-1H-imidazol-2-yl]-4-methyl-7,8-dihydro-6H-quinazolin-5-one]: the IC50 was below 1000 nM.

`Cc1nc(N)nc2c1C(=O)CC(c1nccn1Cc1ccccn1)C2` (stereo not drawn) [Compound 209, 2-amino-4-methyl-7-(1-pyridin-2-ylmethyl-1H-imidazol-2-yl)-7,8-dihydro-6H-quinazolin-5-one]: the IC50 is above 10000 nM.

`CCc1nc(N)nc2c1C(=O)CC(c1ccccc1)C2` (stereo not drawn) [Compound 210, 2-amino-4-ethyl-7-phenyl-7,8-dihydro-6H-quinazolin-5-one]: the IC50 is above 10000 nM. Then `COCc1nc(N)nc2c1C(=O)CC(c1ccccc1)C2` (stereo not drawn) [Compound 211, 2-amino-4-methoxymethyl-7-phenyl-7,8-dihydro-6H-quinazolin-5-one], with above 10000 nM; and `Cc1nc(N)nc2c1C(=O)CC(c1ccc(F)cc1-c1cccc3ccccc13)C2` (stereo not drawn) [Compound 212, 2-amino-7-(4-fluoro-2-naphthalen-1-yl-phenyl)-4-methyl-7,8-dihydro-6H-quinazolin-5-one], with below 1000 nM. The value for `Cc1nc(N)nc2c1C(=O)C[C@H](c1ccc(F)cc1-c1cccc(F)n1)C2` [Compound 213, (R)-2-amino-7-[4-fluoro-2-(6-fluoro-pyridin-2-yl)-phenyl]-4-methyl-7,8-dihydro-6H-quinazolin-5-one] was 1000 to 10000 nM.

For the molecule `Cc1nc(N)nc2c1C(=O)C[C@@H](c1ccc(F)cc1-c1cccc(F)n1)C2` [Compound 214, (S)-2-amino-7-[4-fluoro-2-(6-fluoro-pyridin-2-yl)-phenyl]-4-methyl-7,8-dihydro-6H-quinazolin-5-one], the IC50 was below 1000 nM. As to `Cc1nc(N)nc2c1C(=O)CC(c1c(-c3cccnc3F)cnn1Cc1ccccc1)C2` (stereo not drawn) [Compound 215, 2-amino-7-[2-benzyl-4-(2-fluoro-pyridin-3-yl)-2H-pyrazol-3-yl]-4-methyl-7,8-dihydro-6H-quinazolin-5-one], the 50% inhibitory concentration (IC50) is 1000 to 10000 nM. As to `COc1cccc(-c2ccccc2C2CC(=O)c3c(nc(N)nc3C(F)(F)F)C2)n1` (stereo not drawn) [Compound 216, 2-amino-7-[2-(6-methoxy-pyridin-2-yl)-phenyl]-4-trifluoromethyl-7,8-dihydro-6H-quinazolin-5-one], the half-maximal inhibitory concentration (IC50) is below 1000 nM.

For the molecule `Cc1nc(N)nc2c1C(=O)CC(c1c(F)cccc1-c1cccnc1F)C2` (stereo not drawn) [Compound 217, 2-amino-7-[2-fluoro-6-(2-fluoro-pyridin-3-yl)-phenyl]-4-methyl-7,8-dihydro-6H-quinazolin-5-one], the concentration for half-maximal inhibition (IC50) was below 1000 nM. For `Cc1nc(N)nc2c1C(=O)CC(c1c(F)cccc1-c1cncnc1)C2` (stereo not drawn) [Compound 218, 2-amino-7-(2-fluoro-6-pyrimidin-5-yl-phenyl)-4-methyl-7,8-dihydro-6H-quinazolin-5-one], the IC50 was below 1000 nM. Then `Cc1nc(N)nc2c1C(=O)CC(c1ccc(F)cc1-c1cncc(Cl)n1)C2` (stereo not drawn) [Compound 219, 2-amino-7-[2-(6-chloro-pyrazin-2-yl)-4-fluoro-phenyl]-4-methyl-7,8-dihydro-6H-quinazolin-5-one], with below 1000 nM. For `COc1cccc(-c2cccc(F)c2C2CC(=O)c3c(C)nc(N)nc3C2)n1` (stereo not drawn) [Compound 220, 2-amino-7-[2-fluoro-6-(6-methoxy-pyridin-2-yl)-phenyl]-4-methyl-7,8-dihydro-6H-quinazolin-5-one], the IC50 is below 1000 nM.

As to `COc1cncc(-c2cc(F)ccc2C2CC(=O)c3c(C)nc(N)nc3C2)n1` (stereo not drawn) [Compound 221, 2-amino-7-[4-fluoro-2-(6-methoxy-pyrazin-2-yl)-phenyl]-4-methyl-7,8-dihydro-6H-quinazolin-5-one], the half-maximal inhibitory concentration (IC50) is below 1000 nM. Then `Cc1nc(N)nc2c1C(=O)CC(c1cccc(F)c1-c1cccnc1F)C2` (stereo not drawn) [Compound 222, 2-amino-7-[3-fluoro-2-(2-fluoro-pyridin-3-yl)-phenyl]-4-methyl-7,8-dihydro-6H-quinazolin-5-one], with below 1000 nM; and `Cc1nc(N)nc2c1C(=O)CC(c1ccc(F)cc1-c1cccc(Cl)n1)C2` (stereo not drawn) [Compound 223, 2-amino-7-[2-(6-chloro-pyridin-2-yl)-4-fluoro-phenyl]-4-methyl-7,8-dihydro-6H-quinazolin-5-one], with below 1000 nM; and `COc1nc(-c2cc(F)ccc2C2CC(=O)c3c(C)nc(N)nc3C2)ncc1F` (stereo not drawn) [Compound 224, 2-amino-7-[4-fluoro-2-(5-fluoro-4-methoxy-pyrimidin-2-yl)-phenyl]-4-methyl-7,8-dihydro-6H-quinazolin-5-one], with below 1000 nM.

`COc1cncc(-c2cc(F)ccc2[C@H]2CC(=O)c3c(C)nc(N)nc3C2)n1` [Compound 225, (R)-2-amino-7-[4-fluoro-2-(6-methoxy-pyrazin-2-yl)-phenyl]-4-methyl-7,8-dihydro-6H-quinazolin-5-one]: the IC50 lay within 1000 to 10000 nM. Then `COc1cncc(-c2cc(F)ccc2[C@@H]2CC(=O)c3c(C)nc(N)nc3C2)n1` [Compound 226, (S)-2-amino-7-[4-fluoro-2-(6-methoxy-pyrazin-2-yl)-phenyl]-4-methyl-7,8-dihydro-6H-quinazolin-5-one], with below 1000 nM; and `Cc1cnc(C)c(-c2cc(F)ccc2C2CC(=O)c3c(C)nc(N)nc3C2)n1` (stereo not drawn) [Compound 227, 2-amino-7-[2-(3,6-dimethyl-pyrazin-2-yl)-4-fluoro-phenyl]-4-methyl-7,8-dihydro-6H-quinazolin-5-one], with 1000 to 10000 nM; and `Cc1nc(N)nc2c1C(=O)CC(c1ccc(F)cc1-c1nccnc1Cl)C2` (stereo not drawn) [Compound 228, 2-amino-7-[2-(3-chloro-pyrazin-2-yl)-4-fluoro-phenyl]-4-methyl-7,8-dihydro-6H-quinazolin-5-one], with 1000 to 10000 nM. The value for `COc1nc(-c2cc(F)ccc2[C@H]2CC(=O)c3c(C)nc(N)nc3C2)ncc1F` [Compound 229, (R)-2-amino-7-[4-fluoro-2-(5-fluoro-4-methoxy-pyrimidin-2-yl)-phenyl]-4-methyl-7,8-dihydro-6H-quinazolin-5-one] was 1000 to 10000 nM; that for `COc1nc(-c2cc(F)ccc2[C@@H]2CC(=O)c3c(C)nc(N)nc3C2)ncc1F` [Compound 230, (S)-2-amino-7-[4-fluoro-2-(5-fluoro-4-methoxy-pyrimidin-2-yl)-phenyl]-4-methyl-7,8-dihydro-6H-quinazolin-5-one] was below 1000 nM. For `Cc1nc(N)nc2c1C(=O)CC(c1ccc(F)cc1-c1nccnc1F)C2` (stereo not drawn) [Compound 231, 2-amino-7-[4-fluoro-2-(3-fluoro-pyrazin-2-yl)-phenyl]-4-methyl-7,8-dihydro-6H-quinazolin-5-one], the half-maximal inhibitory concentration (IC50) was below 1000 nM.

Consider `COc1nc(-c2cc(F)ccc2C2CC(=O)c3c(C)nc(N)nc3C2)cnc1N` (stereo not drawn) [Compound 232, 2-amino-7-[2-(5-amino-6-methoxy-pyrazin-2-yl)-4-fluoro-phenyl]-4-methyl-7,8-dihydro-6H-quinazolin-5-one], for which the IC50 was below 1000 nM. Then `COc1nc(-c2cc(F)ccc2C2CC(=O)c3c(C)nc(N)nc3C2)cnc1F` (stereo not drawn) [Compound 233, 2-amino-7-[4-fluoro-2-(5-fluoro-6-methoxy-pyrazin-2-yl)-phenyl]-4-methyl-7,8-dihydro-6H-quinazolin-5-one], with below 1000 nM; and `Cc1nc(N)nc2c1C(=O)CC(c1ncc[nH]1)C2` (stereo not drawn) [Compound 234, 2-amino-7-(1H-imidazol-2-yl)-4-methyl-7,8-dihydro-6H-quinazolin-5-one], with above 10000 nM. As to `COc1cccc(-c2ccccc2C2CC(=O)c3c(C)nc(N)nc3C2)c1F` (stereo not drawn) [Compound 235, 2-amino-7-(2′-fluoro-3′-methoxy-biphenyl-2-yl)-4-methyl-7,8-dihydro-6H-quinazolin-5-one], the IC50 lay within 1000 to 10000 nM. Then `Cc1nc(N)nc2c1C(=O)CC(c1c(F)cccc1Br)C2` (stereo not drawn) [Compound 236, 2-amino-7-(2-bromo-6-fluoro-phenyl)-4-methyl-7,8-dihydro-6H-quinazolin-5-one], with 1000 to 10000 nM.
